Experimental findings from patent publication US20080301822A1, “Role of alpha1-adrenergic receptors” (The Cleveland Clinic Foundation, priority 2005, published 2008) are described below.

Test [1] concerns normal embryonic mouse neurospheres. Briefly: Differentiation rates (number of live cells) in differentiation media (−EGF/FGF). Format: cell-based. Conditions: FIG. 16. Here is the method:
Differentiation rates (number of live cells) were also measured in normal neurospheres using differentiation media (−EGF/FGF) with and without phenylephrine.
(§1) Differentiation Assay: The neurospheres were differentiated by withdrawing the growth factors either in the differentiation supplement (stem cell technologies) for embryonic neurospheres or in B-27 medium with 2% serum (for neonatal neurospheres) after dissociating them with the chemical dissociation kit (Stem Cell Technologies). The cells were plated at the density of 2×10^5 cells in 12 well plates and treated with Phenylephrine (10 uM).

Test [2] has as its system α1A-AR mediated increased Ngn2 expression in normal neonatal neurospheres. Briefly: Real time PCR of α1A-AR induced Ngn2 expression with signaling inhibitors. Format: cell-based, mouse. Particulars: one day phenylephrine treated normal neonatal neurospheres; FIG. 27. As to the method:
(§2) Real Time PCR. Neurospheres were grown in proliferation or differentiation medium for 1, 3, 7 and 10 days respectively. The neurospheres grown in the proliferation medium were treated with phenlyephrine for the above-mentioned time along with Rauwalscine (0.1 uM) and Propranolol (1 uM). Total RNA was isolated using the RNAesy kit (Quiagen) and 2 ug RNA was reverse transcribed using oligodT primers with Superscript II Reverse Transcriptase (Invitrogen). Quantitative real time PCR was performed in iCycler (Biorad) using iQ SYBR Green Supermix. (Bio-Rad) The cDNA was amplified with primers for various neural stem cell proliferation and differentiation genes like Notch-1, Nestin, Mash-1, NeuroD, Math-1, Mash-1, Ngn-1, Ngn-2, D1x-2, Sox-2 and Zic-1. Samples obtained from three independent experiments were used for analysis of relative gene expression using the 2(-Delta Delta C(T) Method (Livak, K J and Schmittgen, T D, Methods 25:402-408 (2001)) and were normalized to α-Tubulin gene expression as internal control.
Since Ngn2 mRNA expression, a major gene of neuronal differentiation, appears to be regulated by the α1A-ARs, the common a i-AR signals responsible for this gene regulation was determined. Real time PCR and inhibitors for PKC (GO6983), PI3K (LY294002), MEK (PD98059) and p38 (SB202190) were used on one day phenylephrine treated normal neonatal neurospheres. The α1A-AR mediated increased Ngn2 expression was blocked by PKC, PI3K and MEK (ERK) inhibition but not by the p38 inhibitor (FIG. 27).

The next test concerns the target α1-ARs. Briefly: Saturation ligand binding on neurosphere membranes. The arrangement: species or system mouse. Conditions: normal embryonic and neonatal neurospheres, FIG. 19A. Here is the method: Ligand Binding. Membranes were prepared and ligand binding was performed as previously described (Rorabaugh et al., Cardiovas. Res., 65:436-445 (2005)). Saturation or competition binding used the nonselective i-AR antagonist, 2-[β-(4-hydroxyl-3-^125I-iodophenyl)ethylaminomethyl]-tetralone (^125I-HEAT) or ^125I-CYP as the radioligand, using either increasing concentration of the radiolabel or using a KD amount (100 pM) to label total α1-ARs and increasing concentrations of an non-labeled selective antagonist. Non-specific labeling was determined by adding 100 uM phentolamine (or α1-ARs) or 1 uM propranolol (for β-ARs). Bmax and KD were determined through the use of Graphpad Prism. Statistical analysis of the binding data used a one-way ANOVA followed by a Newman-Keul's post-test where p<0.05 was considered significant.

The next test has as its system CAM α1A-AR neurospheres. The test is described as follows: Neurosphere differentiation with phenylephrine, CAM α1A-AR neurospheres. It is filed as cell-based, mouse. Conditions: day 10, FIG. 22B. Here is the method:
as §1

Test [3] relates to normal mouse neurospheres. Briefly: Neurosphere differentiation with phenylephrine in proliferation media (+EGF/FGF), immunostaining for MAP2, GFAP, NG2. Format: cell-based. Particulars: phenylephrine 10 uM, 3-10 days. Here is the method:
(§3) Neurosphere Isolation Periventricular tissue from 1-2 day old pups was removed into HEPES-buffered Eagles' medium. The tissue was diced and incubated with Mg/Ca-free HBSS containing EDTA, trypsin, and DNase. The tissue was washed, centrifuged, and the pellet was triturated in PBS to produce a single-cell suspension and was passed through a 70 um cell strainer. The cells were cultured in B27 media containing heparin, bFGF and EGF until neurosphere development. Neurospheres were dissociated and replated several passages. A single neurosphere was picked, mechanically dissociated, and cloned by dilution.
Differentiation Assay: […] supplement (stem cell technologies) for embryonic neurospheres or in B-27 medium with 2% serum (for neonatal neurospheres) after dissociating them with the chemical dissociation kit (Stem Cell Technologies). The cells were plated at the density of 2×10^5 cells in 12 well plates and treated with Phenylephrine (10 uM).

Test [4] relates to α1A-KO neonatal neurospheres. The test is described as follows: Neurosphere differentiation with phenylephrine, α1A-KO neurospheres. Format: cell-based, mouse. Particulars: 10 days, FIG. 23B. As to the method: as §3, §1
Test [5] deals with normal neonatal neurospheres. Briefly: Real time PCR of neurogenic genes after phenylephrine stimulation. It is filed as cell-based, mouse. Conditions: FIG. 26. As to the method: as §2
In another test the test system is pyramidal cells. Briefly: Action potential generation in pyramidal cells (unpublished data). It is filed as cell-based.
The subject of test [6] is α1A-AR-EGFP positive hippocampal CA1 interneurons. The test is described as follows: Cell-attached patch recordings of spontaneous action potentials in hippocampal slices. Format: cell-based, mouse. Particulars: 6FNE 10 μM. Here is the method: Slice Preparation and Cell Identification. Hippocampal brain slices were prepared from α1A-AR-EGFP mice in strict accordance with a protocol approved by the Institutional Animal Care and Use Committee at the University of North Dakota. Mice were deeply anesthetized with isoflurane, sacrificed by decapitation, and their brains rapidly removed and placed in an ice-cold saline solution containing (in mM): 130 NaCl, 24 NaHCO3, 5 KCl, 1.25 NaH2PO4, 0.5 CaCl2, 4 MgCl2 and 10 glucose (saturated with 95% O2-5% CO2). The brain was then sectioned at 250-350 μm thick intervals using a Microm HM 650V vibrating blade microtome (Richard-Allen Scientific, Kalamazoo, Mich.). Slices were incubated at 35° C. for 40 min and then allowed to recover for at least 30 min at room temperature (22±1° C.) before experimentation. Slices were transferred to a PC-H chamber with a coverslip bottom (SD Instruments, Grants Pass, Oreg.) mounted on the fixed stage of an upright microscope (Olympus BX51 WI, Tokyo, Japan) equipped with a filter set for fluorescence imaging of EGFP and IR-DIC optics. Interneurons were visualized using 470 nm and 900 nm light with a water immersion objective (Olympus LUMPlanF1 60×IR) and two CCD cameras (Olympus MagnaFire and Sony XC-75, Tokyo, Japan). Dedicated MagnaFire software and a Hamamatsu C-2400 camera controller (Hamamatsu City, Japan) were used to adjust image quality in GFP and IR-DIC channels, respectively. […]
Electrophysiological Recordings. […] Action potentials (APs) were recorded using an Axopatch 200B amplifier (Axon Instruments, Union City, Calif.) in voltage-clamp mode, filtered at 2 kHz, digitized at 10 kHz (Digidata 1322A; Axon Instruments), and recorded to disk using pClamp9.0 software (Axon Instruments). […] Data were analyzed offline using Origin (OriginLab Corp., Northampton, Mass.) and Mini analysis 6.0.1 (Synaptosoft Inc., Decatur, Ga.). Each detected event was inspected visually to exclude obvious false action potentials (AP) before analysis. […] Statistical significance (p<0.05) was determined using the paired Student's t test, and mean values are expressed ±SEM.

The structures appear in SMILES notation. pKd: −log10 of the molar value.

As to `COc1cc2nc(N3CCN(C(=O)c4ccco4)CC3)nc(N)c2cc1OC` [prazosin], the “block of the phenylephrine enhancement of neurosphere differentiation” value in test [1] (differentiation media (−EGF/FGF) + phenylephrine) is reported as “can be blocked”.
Take `COc1ccc2c(c1)c(C1=C(c3c[nH]c4ccccc34)C(=O)NC1=O)cn2CCCN(C)C` [GO6983]: the “block of α1A-AR mediated increased Ngn2 expression” value in test [2] is recorded as “blocked”.
Regarding `COc1cccc(-c2cc(=O)c3ccccc3o2)c1N` [PD98059], the “block of α1A-AR mediated increased Ngn2 expression” value in test [2] is “blocked”.
Molecule `O=C1c2ccccc2CCC1CNCCc1ccc(O)c([125I])c1` (stereo not drawn) [125I-HEAT, 2-[β-(4-hydroxyl-3-^125I-iodophenyl)ethylaminomethyl]-tetralone] gave a pKd on α1-ARs of 9.75.
Regarding `CNC[C@H](O)c1cccc(O)c1` [Phenylephrine], the “effect on CAM α1A-AR neurospheres (differentiation)” value in the test on CAM α1A-AR neurospheres is listed as “very little effect”. Moreover, in test [3], the “differentiation of normal neurospheres in proliferation medium (+EGF/FGF)” value is “caused the differentiation of the neurospheres”. Also, the “differentiation of normal neurospheres in proliferation medium (+EGF/FGF)” value in test [3] (listed as Phe) was “induced differentiation into all three cell types”. Besides, the “effect on α1A-KO neurospheres (differentiation)” value in test [4] was “increased formation of neurons”. The “differentiation of neurospheres (number of live cells)” value in [1] (differentiation media (−EGF/FGF)) is reported as “enhances differentiation of neurospheres”. In [5], the “increase of α1A-AR mRNA expression” value is listed as “two hundred-fold” and the “increase of α1B-AR mRNA expression” value amounted to 10 fold. Also, in test [5] (normal neonatal neurospheres), the “mRNA expression of genes involved in neurogenesis and neuronal differentiation” value is “induced increased mRNA expression”.
Regarding `Oc1ccc(-c2nc(-c3ccncc3)c(-c3ccc(F)cc3)[nH]2)cc1` [SB202190], the “block of α1A-AR mediated increased Ngn2 expression” value in test [2] is given as “not”.
As for `Cl.NCC(O)c1cc(O)c(O)cc1F` (centres unmarked) [6FNE, 6-fluoronorepinephrine (6FNE) hydrochloride], the “action potential generation in pyramidal cells” value in the test on pyramidal cells was “inhibits action potential generation”. The “effect on AP frequency over control conditions” value in test [6] (FIG. 6D, fully reversible with wash) is “large increase in AP frequency”. Moreover, in test [6] (n=4, control range 0-0.7 Hz), the “frequency of spontaneous action potential discharge, range” value is listed as 1.8-6.5 Hz. Also, the “frequency of spontaneous action potential discharge, mean” value in test [6] (n=4, mean ±SEM, control 0.3±0.1 Hz, 22±1° C.) is 3.5±1.1 Hz.
